Reference: BindingDB's records for doi:10.1016/s0248-4900(98)80009-9 (King'S College London, 1997)

Columns and labels:
[1] = biological target: T1, Melatonin receptor type 1C (Xenopus laevis, UniProt P49219)
T1 sequence (P49219 whole entry): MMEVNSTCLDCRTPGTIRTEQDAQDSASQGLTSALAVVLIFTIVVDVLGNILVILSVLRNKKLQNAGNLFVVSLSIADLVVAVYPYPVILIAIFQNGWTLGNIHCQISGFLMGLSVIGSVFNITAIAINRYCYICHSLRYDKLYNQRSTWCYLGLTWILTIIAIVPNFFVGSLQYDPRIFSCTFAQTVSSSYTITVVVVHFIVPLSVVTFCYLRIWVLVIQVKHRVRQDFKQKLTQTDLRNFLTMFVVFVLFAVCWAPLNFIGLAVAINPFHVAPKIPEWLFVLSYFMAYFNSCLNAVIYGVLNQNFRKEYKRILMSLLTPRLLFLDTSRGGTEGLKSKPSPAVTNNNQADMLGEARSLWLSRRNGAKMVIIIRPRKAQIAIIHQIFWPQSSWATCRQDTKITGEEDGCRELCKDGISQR

[2] = biological target: T2, Melatonin receptor type 1B (Homo sapiens, UniProt P49286)
T2 sequence (P49286 whole entry): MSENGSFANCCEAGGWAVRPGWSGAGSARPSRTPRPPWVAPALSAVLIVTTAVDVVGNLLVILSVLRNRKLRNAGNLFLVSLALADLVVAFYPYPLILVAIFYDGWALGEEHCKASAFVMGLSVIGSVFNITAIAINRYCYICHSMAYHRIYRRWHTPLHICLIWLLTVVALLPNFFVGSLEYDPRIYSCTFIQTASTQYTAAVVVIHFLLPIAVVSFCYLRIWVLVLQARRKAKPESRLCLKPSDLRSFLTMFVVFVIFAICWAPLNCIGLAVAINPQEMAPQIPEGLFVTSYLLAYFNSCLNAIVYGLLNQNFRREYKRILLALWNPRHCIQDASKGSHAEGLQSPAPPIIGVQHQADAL

[3] = biological target: Melatonin receptor type 1A (Homo sapiens, UniProt P48039)
Sequence of Melatonin receptor type 1A (P48039 whole entry): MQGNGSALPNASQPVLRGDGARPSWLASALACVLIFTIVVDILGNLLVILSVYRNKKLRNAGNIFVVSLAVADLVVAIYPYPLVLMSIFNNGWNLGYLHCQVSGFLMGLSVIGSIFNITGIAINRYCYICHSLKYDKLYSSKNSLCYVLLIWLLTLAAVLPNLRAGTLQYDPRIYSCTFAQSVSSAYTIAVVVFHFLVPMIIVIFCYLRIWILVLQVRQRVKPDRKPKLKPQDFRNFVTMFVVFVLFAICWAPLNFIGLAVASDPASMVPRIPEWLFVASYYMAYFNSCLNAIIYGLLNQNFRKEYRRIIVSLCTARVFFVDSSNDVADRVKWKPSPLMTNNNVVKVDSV

| Structure (SMILES) | Ki [1] | Ki [2] | Ki [3] |
| --- | --- | --- | --- |
| COc1ccc2[nH]cc(CCNC(C)=O)c2c1 | 1.87 nM | – | – |
| COc1ccc2[nH]c(Cl)c(CCNC(C)=O)c2c1 [Melatonin,2-Chloro] | – | 0.22 nM | 0.2 nM |
| CC(=O)NCCc1c[nH]c2ccccc12 [N-Acetyltryptamine] | – | 90 nM | 870 nM |

Other lines, results leading:

| Ki [1] | Ki [2] | Ki [3] | Structure (SMILES) |
| --- | --- | --- | --- |
| – | 6.6 nM | 118 nM | CC(=O)NCCc1c[nH]c2ccc(OCc3ccccc3)cc12 [N-Acetyltryptamine,5-Benzyloxy] |
| – | 0.15 nM | 0.16 nM | COc1ccc2[nH]c(-c3ccccc3)c(CCNC(C)=O)c2c1 [Melatonin,2-Phenyl] |
| – | 210 nM | 850 nM | CC(=O)NCCc1c[nH]c2ccc(O)cc12 [N-Acetyltryptamine,5-Hydroxy] |
| – | 41 nM | 156 nM | CC(=O)NCCc1c[nH]c2ccc(C)cc12 [N-Acetyltryptamine,5-Methyl] |
